# Assay results: ChEMBL document CHEMBL3792284, “Synthesis of triazoloquinazolinone based compounds as tubulin polymerization inhibitors and vascular disrupting agents” (Eur J Med Chem, 2016)
# Experiments:
# Tubulin = Tubulin (Bos taurus, UniProt Q6B856+Q862L2+Q862F3); assay: Inhibition of bovine tubulin polymerization after 1 hr by fluorescence spectrometry; assay type: protein assay
# HT-29 [1] = assay: Antiproliferative activity against human HT-29 cells at 10 uM after 72 hrs by MTS assay; assay type: functional; details: HT-29, 72 h
# [2] = Growth inhibition of human HL-60(TB) cells after 48 hrs by sulforhodamine B assay; assay type: functional; details: HL-60, 48 h
# K562 [3] = assay: Growth inhibition of human K562 cells after 48 hrs by sulforhodamine B assay; assay type: functional; details: K562, 48 h
# SR [4] = assay: Growth inhibition of human SR cells after 48 hrs by sulforhodamine B assay; assay type: functional
# A549 [5] = assay: Growth inhibition of human A549/ATCC cells after 48 hrs by sulforhodamine B assay; assay type: functional; details: A549, 48 h
# [6] = Growth inhibition of human HOP62 cells after 48 hrs by sulforhodamine B assay; assay type: functional; details: HOP-62, 48 h
# NCI-H522 [7] = assay: Growth inhibition of human NCI-H522 cells after 48 hrs by sulforhodamine B assay; assay type: functional; details: NCI-H522, 48 h
# [8] = Growth inhibition of human COLO205 cells after 48 hrs by sulforhodamine B assay; assay type: functional; details: COLO 205, 48 h
# [9] = Growth inhibition of human HCT116 cells after 48 hrs by sulforhodamine B assay; assay type: functional; details: HCT-116, 48 h
# [10] = Growth inhibition of human HCT15 cells after 48 hrs by sulforhodamine B assay; assay type: functional; details: HCT-15, 48 h
# HT-29 [11] = assay: Growth inhibition of human HT-29 cells after 48 hrs by sulforhodamine B assay; assay type: functional; details: HT-29, 48 h
# [12] = Growth inhibition of human SF295 cells after 48 hrs by sulforhodamine B assay; assay type: functional; details: SF-295, 48 h
# [13] = Growth inhibition of human SNB75 cells after 48 hrs by sulforhodamine B assay; assay type: functional; details: SNB-75, 48 h
# U-251 [14] = assay: Growth inhibition of human U251 cells after 48 hrs by sulforhodamine B assay; assay type: functional; details: U-251, 48 h
# SK-MEL-5 [15] = assay: Growth inhibition of human SK-MEL-5 cells after 48 hrs by sulforhodamine B assay; assay type: functional; details: SK-MEL-5, 48 h
# [16] = Growth inhibition of human OVCAR3 cells after 48 hrs by sulforhodamine B assay; assay type: functional; details: OVCAR-3, 48 h
# A498 [17] = assay: Growth inhibition of human A498 cells after 48 hrs by sulforhodamine B assay; assay type: functional; details: A498, 48 h
# [18] = Growth inhibition of human Caki1 cells after 48 hrs by sulforhodamine B assay; assay type: functional; details: CAKI-1, 48 h
# [19] = Growth inhibition of human PC3 cells after 48 hrs by sulforhodamine B assay; assay type: functional; details: PC-3, 48 h
# MDA-MB-435 [20] = assay: Growth inhibition of human MDA-MB-435 cells after 72 hrs by MTT assay; assay type: functional; details: MDA-MB-435, 72 h
# MCF7 [21] = assay: Growth inhibition of human MCF7 cells after 3 days by MTT assay; assay type: functional; details: MCF7, 72 h
# [22] = Growth inhibition of human HL-60(TB) cells at 10 uM after 48 hrs by sulforhodamine B assay; assay type: functional; details: HL-60, 48 h, read-out: GI
# K562 [23] = assay: Growth inhibition of human K562 cells at 10 uM after 48 hrs by sulforhodamine B assay; assay type: functional; details: K562, 48 h, read-out: GI
# SR [24] = assay: Growth inhibition of human SR cells at 10 uM after 48 hrs by sulforhodamine B assay; assay type: functional; details: read-out: GI
# A549 [25] = assay: Growth inhibition of human A549/ATCC cells at 10 uM after 48 hrs by sulforhodamine B assay; assay type: functional; details: A549, 48 h, read-out: GI
# [26] = Growth inhibition of human HOP62 cells at 10 uM after 48 hrs by sulforhodamine B assay; assay type: functional; details: HOP-62, 48 h, read-out: GI
# NCI-H522 [27] = assay: Growth inhibition of human NCI-H522 cells at 10 uM after 48 hrs by sulforhodamine B assay; assay type: functional; details: NCI-H522, 48 h, read-out: GI
# [28] = Growth inhibition of human COLO205 cells at 10 uM after 48 hrs by sulforhodamine B assay; assay type: functional; details: COLO 205, 48 h, read-out: GI
# [29] = Growth inhibition of human HCT116 cells at 10 uM after 48 hrs by sulforhodamine B assay; assay type: functional; details: HCT-116, 48 h, read-out: GI
# [30] = Growth inhibition of human HCT15 cells at 10 uM after 48 hrs by sulforhodamine B assay; assay type: functional; details: HCT-15, 48 h, read-out: GI
# HT-29 [31] = assay: Growth inhibition of human HT-29 cells at 10 uM after 48 hrs by sulforhodamine B assay; assay type: functional; details: HT-29, 48 h, read-out: GI
# [32] = Growth inhibition of human SF295 cells at 10 uM after 48 hrs by sulforhodamine B assay; assay type: functional; details: SF-295, 48 h, read-out: GI
# [33] = Growth inhibition of human SNB75 cells at 10 uM after 48 hrs by sulforhodamine B assay; assay type: functional; details: SNB-75, 48 h, read-out: GI
# U-251 [34] = assay: Growth inhibition of human U251 cells at 10 uM after 48 hrs by sulforhodamine B assay; assay type: functional; details: U-251, 48 h, read-out: GI
# MDA-MB-435 [35] = assay: Growth inhibition of human MDA-MB-435 cells at 10 uM after 48 hrs by sulforhodamine B assay; assay type: functional; details: MDA-MB-435, 48 h, read-out: GI
# SK-MEL-5 [36] = assay: Growth inhibition of human SK-MEL-5 cells at 10 uM after 48 hrs by sulforhodamine B assay; assay type: functional; details: SK-MEL-5, 48 h, read-out: GI
# [37] = Growth inhibition of human OVCAR3 cells at 10 uM after 48 hrs by sulforhodamine B assay; assay type: functional; details: OVCAR-3, 48 h, read-out: GI
# [38] = Growth inhibition of human NCI-ADR-RES cells at 10 uM after 48 hrs by sulforhodamine B assay; assay type: functional; details: read-out: GI
# A498 [39] = assay: Growth inhibition of human A498 cells at 10 uM after 48 hrs by sulforhodamine B assay; assay type: functional; details: A498, 48 h, read-out: GI
# [40] = Growth inhibition of human Caki1 cells at 10 uM after 48 hrs by sulforhodamine B assay; assay type: functional; details: CAKI-1, 48 h, read-out: GI
# [41] = Growth inhibition of human PC3 cells at 10 uM after 48 hrs by sulforhodamine B assay; assay type: functional; details: PC-3, 48 h, read-out: GI
# [42] = Growth inhibition of human DU145 cells at 10 uM after 48 hrs by sulforhodamine B assay; assay type: functional; details: DU-145, 48 h, read-out: GI
# MCF7 [43] = assay: Growth inhibition of human MCF7 cells at 10 uM after 48 hrs by sulforhodamine B assay; assay type: functional; details: MCF7, 48 h, read-out: GI
# MDA-MB-468 [44] = assay: Growth inhibition of human MDA-MB-468 cells at 10 uM after 48 hrs by sulforhodamine B assay; assay type: functional; details: MDA-MB-468, 48 h, read-out: GI
# MDA-MB-435 [45] = assay: Growth inhibition of human MDA-MB-435 cells after 48 hrs by sulforhodamine B assay; assay type: functional; details: MDA-MB-435, 48 h
# [46] = Growth inhibition of human NCI-ADR-RES cells after 48 hrs by sulforhodamine B assay; assay type: functional
# [47] = Growth inhibition of human DU145 cells after 48 hrs by sulforhodamine B assay; assay type: functional; details: DU-145, 48 h
# MCF7 [48] = assay: Growth inhibition of human MCF7 cells after 48 hrs by sulforhodamine B assay; assay type: functional; details: MCF7, 48 h
# MDA-MB-468 [49] = assay: Growth inhibition of human MDA-MB-468 cells after 48 hrs by sulforhodamine B assay; assay type: functional; details: MDA-MB-468, 48 h
# [50] = Cytotoxicity against human HL-60(TB) cells assessed as cell growth at 10 uM after 48 hrs by sulforhodamine B assay; assay type: functional; details: HL-60, 48 h, read-out: Activity
# MDA-MB-435 [51] = assay: Cytotoxicity against human MDA-MB-435 cells assessed as cell growth at 10 uM after 48 hrs by sulforhodamine B assay; assay type: functional; details: MDA-MB-435, 48 h, read-out: Activity
# [52] = Cytotoxicity against human COLO205 cells assessed as cell growth at 10 uM after 48 hrs by sulforhodamine B assay; assay type: functional; details: COLO 205, 48 h, read-out: Activity
# HUVEC = assay: Inhibition of cell invasion of HUVEC at 1 uM after 24 hrs by crystal violet staining based Boyden chamber assay; assay type: functional; details: Homo sapiens
compound,measurement,setting,value
COc1ccc(-c2nnc3[nH]c(=O)c4ccccc4n23)cc1O,IC50,Tubulin,4260 nM
same,inhibition at 10 µM,HT-29 [1],10%
COc1ccc(/C=C\c2cc(OC)c(OC)c(OC)c2)cc1O [COMBRETASTATIN A4],GI50,[2],2 nM
same,GI50,K562 [3],2 nM
same,GI50,SR [4],3 nM
same,GI50,A549 [5],16 nM
same,GI50,[6],2 nM
same,GI50,NCI-H522 [7],2 nM
same,GI50,[8],221 nM
same,GI50,[9],3 nM
same,GI50,[10],4 nM
same,GI50,HT-29 [11],118 nM
same,GI50,[12],4 nM
same,GI50,[13],8 nM
same,GI50,U-251 [14],4 nM
same,GI50,SK-MEL-5 [15],3 nM
same,GI50,[16],2 nM
same,GI50,A498 [17],6 nM
same,GI50,[18],25 nM
same,GI50,[19],1 nM
same,GI50,MDA-MB-435 [20],3 nM
same,GI50,MCF7 [21],18 nM
COc1ccc(-c2nnc3n(C)c(=O)c4ccccc4n23)cc1,IC50,Tubulin,> 10000 nM
same,inhibition at 10 µM,HT-29 [1],2%
COc1ccc(-c2nnc3n(C)c(=O)c4ccccc4n23)cc1N,IC50,Tubulin,> 10000 nM
same,inhibition at 10 µM,HT-29 [1],95%
same,inhibition of growth at 10 µM,[22],100%
same,inhibition of growth at 10 µM,K562 [23],92%
same,inhibition of growth at 10 µM,SR [24],89%
same,inhibition of growth at 10 µM,A549 [25],72%
same,inhibition of growth at 10 µM,[26],83%
same,inhibition of growth at 10 µM,NCI-H522 [27],91%
same,inhibition of growth at 10 µM,[28],100%
same,inhibition of growth at 10 µM,[29],76%
same,inhibition of growth at 10 µM,[30],78%
same,inhibition of growth at 10 µM,HT-29 [31],95%
same,inhibition of growth at 10 µM,[32],98%
same,inhibition of growth at 10 µM,[33],81%
same,inhibition of growth at 10 µM,U-251 [34],81%
same,inhibition of growth at 10 µM,MDA-MB-435 [35],100%
same,inhibition of growth at 10 µM,SK-MEL-5 [36],86%
same,inhibition of growth at 10 µM,[37],92%
same,inhibition of growth at 10 µM,[38],83%
same,inhibition of growth at 10 µM,A498 [39],80%
same,inhibition of growth at 10 µM,[40],65%
same,inhibition of growth at 10 µM,[41],67%
same,inhibition of growth at 10 µM,[42],79%
same,inhibition of growth at 10 µM,MCF7 [43],85%
same,inhibition of growth at 10 µM,MDA-MB-468 [44],89%
same,GI50,K562 [3],39 nM
same,GI50,SR [4],34 nM
same,GI50,A549 [5],1470 nM
same,GI50,[6],48 nM
same,GI50,NCI-H522 [7],31 nM
same,GI50,[8],47 nM
same,GI50,[9],57 nM
same,GI50,[10],50 nM
same,GI50,HT-29 [11],43 nM
same,GI50,[12],50 nM
same,GI50,U-251 [14],1630 nM
same,GI50,MDA-MB-435 [45],23 nM
same,GI50,SK-MEL-5 [15],60 nM
same,GI50,[16],47 nM
same,GI50,[46],65 nM
same,GI50,A498 [17],2840 nM
same,GI50,[18],1950 nM
same,GI50,[19],2650 nM
same,GI50,[47],3090 nM
same,GI50,MCF7 [48],43 nM
same,GI50,MDA-MB-468 [49],2330 nM
same,growth at 10 µM,[50],11%
same,growth at 10 µM,MDA-MB-435 [51],44%
same,growth at 10 µM,[52],18%
COc1cc(-c2nnc3[nH]c(=O)c4ccccc4n23)ccc1O,IC50,Tubulin,> 10000 nM
same,inhibition at 10 µM,HT-29 [1],0%
COc1cc2c(Oc3ccc4[nH]c(C)cc4c3F)ncnc2cc1OCCCN1CCCC1 [CEDIRANIB],inhibition at 1 µM,HUVEC,74%
COc1ccc(-c2nnc3[nH]c(=O)c4ccccc4n23)cc1OC,IC50,Tubulin,> 10000 nM
same,inhibition at 10 µM,HT-29 [1],0%
COc1ccc(-c2nnc3n(C)c(=O)c4ccccc4n23)cc1OC,IC50,Tubulin,> 10000 nM
same,inhibition at 10 µM,HT-29 [1],1%
COc1cc(-c2nnc3n(C)c(=O)c4ccccc4n23)cc(OC)c1OC,IC50,Tubulin,> 10000 nM
same,inhibition at 10 µM,HT-29 [1],0%
COc1ccc(-c2nnc3[nH]c(=O)c4ccccc4n23)cc1,IC50,Tubulin,> 10000 nM
same,inhibition at 10 µM,HT-29 [1],0%
COc1cc(-c2nnc3n(C)c(=O)c4ccccc4n23)ccc1O,IC50,Tubulin,> 10000 nM
same,inhibition at 10 µM,HT-29 [1],0%
COc1cc(-c2nnc3[nH]c(=O)c4ccccc4n23)cc(OC)c1OC,IC50,Tubulin,> 10000 nM
same,inhibition at 10 µM,HT-29 [1],2%
Cn1c(=O)c2ccccc2n2c(-c3ccc(O)c(O)c3)nnc12,IC50,Tubulin,> 10000 nM
same,inhibition at 10 µM,HT-29 [1],0%
